One assay concerns the target T1, FLT3-ITD (Homo sapiens, UniProt P36888).
T1 construct: fused on or other part: GST tag (detected with the Europium-tagged anti-GST antibody)
T1 sequence (P36888 1-993): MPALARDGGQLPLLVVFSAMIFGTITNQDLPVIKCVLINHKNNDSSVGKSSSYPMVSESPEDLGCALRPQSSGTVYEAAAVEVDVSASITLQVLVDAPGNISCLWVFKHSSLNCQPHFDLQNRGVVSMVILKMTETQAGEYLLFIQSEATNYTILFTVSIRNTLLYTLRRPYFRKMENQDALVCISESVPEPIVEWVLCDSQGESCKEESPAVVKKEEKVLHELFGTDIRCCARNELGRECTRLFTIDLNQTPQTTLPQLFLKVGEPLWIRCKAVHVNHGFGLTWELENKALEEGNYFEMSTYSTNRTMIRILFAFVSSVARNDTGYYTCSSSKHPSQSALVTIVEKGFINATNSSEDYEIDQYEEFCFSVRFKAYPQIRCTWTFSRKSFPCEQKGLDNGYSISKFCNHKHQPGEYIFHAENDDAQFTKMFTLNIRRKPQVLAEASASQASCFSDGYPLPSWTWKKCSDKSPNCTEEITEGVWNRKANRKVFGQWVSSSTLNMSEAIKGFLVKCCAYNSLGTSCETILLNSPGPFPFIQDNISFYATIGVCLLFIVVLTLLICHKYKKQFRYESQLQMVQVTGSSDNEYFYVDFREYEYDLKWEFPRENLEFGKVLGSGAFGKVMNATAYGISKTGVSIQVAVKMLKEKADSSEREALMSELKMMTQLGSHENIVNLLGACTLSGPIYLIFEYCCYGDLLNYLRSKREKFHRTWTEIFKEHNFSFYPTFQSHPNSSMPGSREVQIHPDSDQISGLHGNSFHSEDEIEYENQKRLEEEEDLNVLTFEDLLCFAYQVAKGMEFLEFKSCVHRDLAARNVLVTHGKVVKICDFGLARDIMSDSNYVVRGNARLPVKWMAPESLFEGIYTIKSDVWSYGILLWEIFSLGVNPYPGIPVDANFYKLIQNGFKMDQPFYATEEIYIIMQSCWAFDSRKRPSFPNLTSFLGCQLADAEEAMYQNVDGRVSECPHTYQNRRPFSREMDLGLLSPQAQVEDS
As to the kind of experiment: Lanthascreen TR-FRET enzymatic assay, FLT3-ITD. Format: binding. The following applies: 1 hour at 25° C., 1% DMSO, read-out: Enzymology (IC50) FLT3-ITD. The method, then:
(§1) Recombinant FLT3 (#PV3182), JAK2 (#PV4210) and JAK3 (#PV3855) enzymes were purchased from Life Technologies. FLT3-ITD (#0778-0000-1) and FLT3^D835Y (#14-610) were respectively purchased from Proquinase and Merck Millipore.
(§2) The assays were conducted in 384-well plates based on Life Technologies Lanthascreen® TR-FRET methodologies.
(§3) FLT3-ITD or FLT3^D835Y assays: 15 nM of FLT3-ITD or FLT3^D835Y, 3 nM of the 236 kinase tracker (Life Technologies #PV5592) and 6 nM of the Europium-tagged anti-GST Lanthascreen® antibody are mixed into 15 μL total volume reaction mixture.
(§4) IC50s were determined from a 8-point dose-response curve spanning a >1000 fold concentration range using a 10 mM compound solution stock into pure DMSO (Sigma #D8418). The overall DMSO concentrations of tested solutions were 1%.
(§5) IC50s were generated with the software Prism (Graphpad).
(In general: Time-resolved FRET reads energy transfer from a long-lived donor to a nearby acceptor.)

The target of a further assay is T2, FLT3 D835Y (Homo sapiens, UniProt P36888, D835Y).
T2 construct: purchased Merck Millipore 14-610
T2 sequence (P36888 27-993 D835Y): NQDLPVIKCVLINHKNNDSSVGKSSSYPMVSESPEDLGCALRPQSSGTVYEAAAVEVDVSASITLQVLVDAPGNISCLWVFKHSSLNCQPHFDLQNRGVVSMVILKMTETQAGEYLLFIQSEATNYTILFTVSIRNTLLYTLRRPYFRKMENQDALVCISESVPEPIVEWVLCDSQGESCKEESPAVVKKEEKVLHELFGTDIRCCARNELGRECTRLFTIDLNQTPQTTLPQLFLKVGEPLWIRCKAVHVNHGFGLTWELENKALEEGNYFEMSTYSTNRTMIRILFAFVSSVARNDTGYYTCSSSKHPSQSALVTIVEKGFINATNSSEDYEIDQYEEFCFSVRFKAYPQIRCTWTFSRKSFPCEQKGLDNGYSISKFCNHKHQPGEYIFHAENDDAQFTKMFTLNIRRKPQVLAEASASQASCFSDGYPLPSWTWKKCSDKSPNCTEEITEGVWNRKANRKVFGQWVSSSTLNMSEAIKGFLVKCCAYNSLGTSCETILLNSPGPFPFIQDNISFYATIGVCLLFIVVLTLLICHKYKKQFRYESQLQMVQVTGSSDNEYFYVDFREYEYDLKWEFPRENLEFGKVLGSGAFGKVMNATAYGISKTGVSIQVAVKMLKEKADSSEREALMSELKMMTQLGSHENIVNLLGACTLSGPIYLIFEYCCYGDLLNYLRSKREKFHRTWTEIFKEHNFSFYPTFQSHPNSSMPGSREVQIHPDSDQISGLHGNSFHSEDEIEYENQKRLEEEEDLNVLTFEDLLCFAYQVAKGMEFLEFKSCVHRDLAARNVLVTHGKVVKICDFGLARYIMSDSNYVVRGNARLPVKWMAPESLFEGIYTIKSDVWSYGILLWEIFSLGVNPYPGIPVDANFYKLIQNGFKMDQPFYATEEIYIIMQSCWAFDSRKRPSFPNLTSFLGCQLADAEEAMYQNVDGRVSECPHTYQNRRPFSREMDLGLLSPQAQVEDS
Description: Lanthascreen TR-FRET enzymatic assay, FLT3 D835Y. The following applies: 1 hour at 25° C., 1% DMSO, read-out: Enzymology (IC50) FLT3 D835Y. Format: binding. The method, then: as §1, §2, §3, §4, §5

For orientation: IC50 means the point on the concentration scale where inhibition reaches its midpoint. Regarding `Cn1c(=O)c2cc(N)ccc2c2nc(Nc3cccc(N)c3)ncc21` [Compound C2, 8-amino-2-((3-aminophenyl)amino)-5-methylpyrimido[5,4-c]isoquinolin-6(5H)-one], the half-inhibitory concentration (IC50) at FLT3-ITD and at FLT3 D835Y was less than 25 nM throughout.

Consider `CN1CCN(c2ccc(Nc3ncc4c(n3)c3ccc(N)cc3c(=O)n4C)cc2)CC1` [Compound C4, 8-amino-5-methyl-2-((4-(4-methylpiperazin-1-yl)phenyl)amino)pyrimido[5,4-c]isoquinolin-6(5H)-one], for which the IC50 on FLT3-ITD and on FLT3 D835Y was less than 25 nM throughout.

For the molecule `CN1CCN(c2cccc(Nc3ncc4c(n3)c3ccc(N)cc3c(=O)n4C)c2)CC1` [Compound C6, 8-amino-5-methyl-2-((3-(4-methylpiperazin-1-yl)phenyl)amino)pyrimido[5,4-c]isoquinolin-6(5H)-one], the IC50 on FLT3-ITD and at FLT3 D835Y was less than 25 nM throughout.

As for `COc1cc2c(cc1N)c(=O)n(C)c1cnc(Nc3ccc(N4CCN(C)CC4)cc3)nc21` [Compound C10, 8-amino-9-methoxy-5-methyl-2-((4-(4-methylpiperazin-1-yl)phenyl)amino) pyrimido[5,4-c]isoquinolin-6(5H)-one], the IC50 on FLT3-ITD and at FLT3 D835Y was less than 25 nM throughout.

On to `Cn1c(=O)c2cc(N)ccc2c2nc(Nc3ccc(F)c(N)c3)ncc21` [Compound C22, 8-amino-2-((3-amino-4-fluorophenyl)amino)-5-methylpyrimido[5,4-c]isoquinolin-6(5H)-one], for which the IC50 on FLT3-ITD and on FLT3 D835Y was less than 25 nM throughout.

`COc1cc2c(cc1N)c(=O)n(C)c1cnc(Nc3cc(N)cc(F)c3)nc21` [Compound C26, 8-amino-2-((3-amino-5-fluorophenyl)amino)-9-methoxy-5-methylpyrimido [5,4-c]isoquinolin-6(5H)-one]: the IC50 on FLT3-ITD and on FLT3 D835Y was 25 to 100 nM in each case.

Take `COc1cc2c(cc1N)c(=O)n(C)c1cnc(Nc3ccc(F)c(N)c3)nc21` [Compound C28, 8-amino-2-((3-amino-4-fluorophenyl)amino)-9-methoxy-5-methylpyrimido [5,4-c]isoquinolin-6(5H)-one]: the IC50 on FLT3-ITD was less than 25 nM; on FLT3 D835Y, 25 to 100 nM.

Take `Cn1c(=O)c2cc(N)ccc2c2nc(Nc3ccc(OCCN4CCCC4)cc3)ncc21` [Compound C34, 8-amino-5-methyl-2-((4-(2-(pyrrolidin-1-yl)ethoxy)phenyl)amino)pyrimido[5,4-c]isoquinolin-6(5H)-one]: the IC50 at FLT3-ITD and at FLT3 D835Y was less than 25 nM each time.

In the case of `COc1cc2c(cc1N)c(=O)n(C)c1cnc(Nc3ccc(OCCN4CCCC4)cc3)nc21` [Compound C42, 8-amino-9-methoxy-5-methyl-2-((4-(2-(pyrrolidin-1-yl)ethoxy)phenyl)amino) pyrimido[5,4-c]isoquinolin-6(5H)-one], the IC50 on FLT3-ITD and at FLT3 D835Y was less than 25 nM each time.

The values are drawn from patent US9944641B2, “Isoquinolinone derivatives useful in the treatment of cancer” (PIERRE FABRE MEDICAMENT, priority 2014, dated 2018).
